Assay results taken from the NIST ThermoML archive (doi:10.1016/j.fluid.2010.08.022).
± gives the expanded uncertainty stated by the source.

Assay: refractive index (Na D-line) (dimensionless)
Details: 101.33 kPa, Standard Abbe refractometry

Compound	refractive index (278.45 K, Crystal)	refractive index (288.35 K, Liquid crystal of unknown type)	refractive index (298.15 K, Liquid crystal of unknown type)	refractive index (308.25 K, Liquid crystal of unknown type)	refractive index (313.21 K, Liquid crystal of unknown type)	refractive index (323.45 K, Liquid crystal of unknown type)	refractive index (333.25 K, Liquid crystal of unknown type)	refractive index (278.35 K, Liquid crystal of unknown type)	refractive index (288.25 K, Liquid crystal of unknown type)	refractive index (298.05 K, Liquid crystal of unknown type)	refractive index (308.22 K, Liquid crystal of unknown type)	refractive index (318.23 K, Liquid crystal of unknown type)	refractive index (328.05 K, Liquid crystal of unknown type)	refractive index (338.05 K, Liquid crystal of unknown type)	refractive index (341.15 K, Liquid crystal of unknown type)	refractive index (343.25 K, Liquid crystal of unknown type)
CCCCCCCC/C=C\CCCCCCCC(=O)O.NCCO [2-hydroxyethylammonium oleate]	1.496 ± 0.00069	1.49406 ± 0.00068	1.48994 ± 0.00068	1.48558 ± 0.00068	1.48343 ± 0.00068	1.47901 ± 0.00068	1.4747 ± 0.00068	–	–	–	–	–	–	–	–	–
CCCCCCCC/C=C\CCCCCCCC(=O)[O-].OCC[NH2+]CCO [bis(2-hydroxyethyl)ammonium oleate]	–	–	–	–	–	–	–	1.4956 ± 0.00068	1.49226 ± 0.00068	1.48855 ± 0.00068	1.48463 ± 0.00068	1.48023 ± 0.00068	1.47673 ± 0.00068	1.47267 ± 0.00068	1.47055 ± 0.00075	1.46364 ± 0.00094
